# From US20250250292A1, “DELIVERY SYSTEM TO TARGET GRAM-NEGATIVE BACTERIA” (priority 2022, published 2025)
# Where two headings read alike, the source gives them in different places.
# Tests used:
# Type in all cases: cell-based
# MRC5 fibroblast cells = assay: Cel Titer Glo cytotoxicity in MRC5 cells; conditions: Homo sapiens
# Description: In order to facilitate development of the TPP containing antibiotics, a series of TPP linkers were prepared and tested for their toxicity in MRC5 cells. This library of linkers are shown below: The toxicity of these linkers in MRC5 cells after a 72 hour incubation.
# [1] = tested on: Escherichia coli (BL21(DE3)); assay: Resazurin blue (alamarBlue) bacterial cell viability assay, gram-negative model; conditions: for cytotoxic effect: E. coli BL21 (DE3)
# Description: (§1) To compare the efficacy of pleuromutilin and the pleuromulin-TPP^+ ester pro-drug (AP-8-159B) gram-negative and gram-positive pathogen model system were used. Thus, Escherichia coli (BL21(DE3) from New England Biolabs) was used as a model strain for gram-negative bacteria and clinical isolates of Staphylococcus aureus were used as the model system for gram-positive bacteria (NR-49120, NR-46413 obtained from BEI Resources). All strains were cultured at 37° C. overnight in Luria Bertani (LB) (BD 244610). For testing the drug sensitivity, bacteria were grown in RPMI medium containing 10% fetal bovine serum or human serum.
# A resazurin blue assay (alamarBlue®) (Toté et al., 2009; Costa et al., 2021; Wannigama et al., 2019; Travnickova et al., 2019) was used to evaluate bacterial cell viability. Resazurin (7-hydroxy-10-oxidophenoxazin-10-ium-3-one, sodium) is a blue fluorogenic dye used as a redox indicator in cell viability and proliferation assays for bacteria, yeast, or mammalian cells. The resazurin assay protocol is based on the reduction of oxidized non-fluorescent blue resazurin to a red fluorescent dye (resorufin), where NADPH dehydrogenase, without being bound by theory, is probably responsible for the transference of electrons from NADPH+H^+ to resazurin (Costa et al., 2021). The amount of resorufin produced is directly proportional to the number of living cells. This simple fluorometric-based assay rapidly quantifies metabolically active bacterial cells. Two controls were added to the plate to confirm the correct response from the resazurin. The positive control used evaluated media alone without bacterial culture to confirm there was no change from blue to red. The negative control evaluated the bacteria culture alone without added compound to provide a 100% growth control (red). Thus, resazurin sodium salt (Sigma R7017) was added to pleuromutilin or pleuromutilin-TPP+ prodrug treated bacterial samples at a final concentration of 0.02% and incubated for 8 hours at 37° C. Changes in fluorescence were measured on the Biotek Synergy 2 plate reader after an 8-hour incubation at 37° C. using an excitation filter range of 530-570 nm and an emission filter range of 590-620 nm. An increase in fluorescence intensity corresponded to bacterial growth and was quantified by comparison with untreated bacterial control samples. The ratio of (TThreshold (untreated)/TThreshold (prodrug-treated)) (where T=time) was used to quantify the change in bacterial growth. To minimize inter-experimental variations, TThreshold values were corrected by subtracting untreated control cultures to reach minimum detectable fluorescence. At the end of the experiment, wells were visualized for changes in color from blue (inviable bacteria) to red (viable bacteria) and a picture was taken.
# [2] = tested on: clinical isolates of Staphylococcus aureus (NR-49120, NR-46413); assay: Resazurin blue (alamarBlue) bacterial cell viability assay, gram-positive model; conditions: clinical strains of Staphylococcus aureus
# Description: as §1
# A resazurin blue assay (alamarBlue®) (Toté et al., 2009; Costa et al., 2021; Wannigama et al., 2019; Travnickova et al., 2019) was used to evaluate bacterial cell viability. Resazurin (7-hydroxy-10-oxidophenoxazin-10-ium-3-one, sodium) is a blue fluorogenic dye used as a redox indicator in cell viability and proliferation assays for bacteria, yeast, or mammalian cells. […] This simple fluorometric-based assay rapidly quantifies metabolically active bacterial cells. […] The positive control used evaluated media alone without bacterial culture to confirm there was no change from blue to red. The negative control evaluated the bacteria culture alone without added compound to provide a 100% growth control (red). […] Changes in fluorescence were measured on the Biotek Synergy 2 plate reader after an 8-hour incubation at 37° C. using an excitation filter range of 530-570 nm and an emission filter range of 590-620 nm. An increase in fluorescence intensity corresponded to bacterial growth and was quantified by comparison with untreated bacterial control samples. The ratio of (TThreshold (untreated)/TThreshold (prodrug-treated)) (where T=time) was used to quantify the change in bacterial growth. To minimize inter-experimental variations, TThreshold values were corrected by subtracting untreated control cultures to reach minimum detectable fluorescence. […]
# Escherichia coli = assay: Antibacterial in vitro activity (MIC)
# Description: (§2) These compounds were tested in an E. coli and Klebsiella strain to determine the change in OD600 as a function of concentration (FIG. 5, E. coli; FIG. 6, Klebsiella). The antibacterial activity of the compounds was further analyzed and activity was determine a variety of different bacterial strains.
# Acinetobacter baumannii = assay: Antibacterial in vitro activity (MIC)
# Description: as §2
# Citrobacter freundii = assay: Antibacterial in vitro activity (MIC)
# Description: as §2
# Enterobacter cloacae = assay: Antibacterial in vitro activity (MIC)
# Description: as §2
# Enterococcus faecium = assay: Antibacterial in vitro activity (MIC); conditions: isolate D0459, Clinical isolate
# Description: as §2
# Haemophilus influenzae = assay: Antibacterial in vitro activity (MIC)
# Description: as §2
# Klebsiella pneumoniae = assay: Antibacterial in vitro activity (MIC)
# Description: as §2
# Proteus mirabilis = assay: Antibacterial in vitro activity (MIC)
# Description: as §2
# Pseudomonas aeruginosa = assay: Antibacterial in vitro activity (MIC)
# Description: as §2
# Salmonella typhimurium = assay: Antibacterial in vitro activity (MIC); conditions: Salmonella enterica, ATCC 13311 / TYPHIMURIUM; isolate D0109, ATCC13311
# Description: as §2
# Staphylococcus aureus = assay: Antibacterial in vitro activity (MIC)
# Description: as §2
# Streptococcus agalactiae = assay: Antibacterial in vitro activity (MIC); conditions: isolate B0790, Clinical isolate
# Description: as §2
# Streptococcus pneumoniae = assay: Antibacterial in vitro activity (MIC)
# Description: as §2
# Streptococcus pyogenes = assay: Antibacterial in vitro activity (MIC); conditions: isolate B0780, Clinical isolate
# Description: as §2
# [3] = Table 1, TPP+ linkers, MRC5 cells, 72-hour incubation
# [4] = Table 2, cytotoxicity in MRC5 fibroblast cells
# [5] = ATCC25922, isolate B0001, ATCC 25922, read-out: MIC
# [6] = isolate B0159, Efflux pump deficient (ΔtolC)
# [7] = isolate B0429, Efflux pump deficient (ΔacrAB)
# [8] = isolate B1098, Clinical isolate, read-out: MIC
# [9] = isolate D0120, Clinical isolate, read-out: MIC
# [10] = ATCC15473, isolate B0473, ATCC 15473
# [11] = isolate B1062, Clinical isolate
# [12] = isolate B0271, Clinical isolate
# [13] = isolate D1089, Clinical isolate
# [14] = isolate D1090, Clinical isolate
# [15] = ATCC49247, isolate B0035, ATCC 49247
# [16] = isolate B0126, Clinical isolate
# [17] = ATCC11228, isolate B0032, ATCC 11228
# [18] = ATCC29519, isolate D0033, ATCC 29519
# [19] = ATCC43816, isolate B0305, ATCC 43816
# [20] = Proteus mirabilis, isolate D1301, Clinical isolate, read-out: MIC
# [21] = isolate D1300, Clinical isolate
# [22] = ATCC27853, isolate B0015, ATCC 27853
# [23] = ATCC29511, isolate B0016, ATCC 29511
# [24] = isolate B0367, Clinical isolate
# [25] = ATCC49951, isolate B0009, ATCC 49951
# [26] = isolate B0029, Clinical isolate
# [27] = isolate B0078, Clinical isolate
# [28] = isolate B0415, Clinical isolate
smiles,measurement,setting,value
O=C(O)CCCCC[P+](c1ccccc1)(c1ccccc1)c1ccccc1 [AP-3-195],IC50,MRC5 fibroblast cells; [3],> 90 µM
O=C(O)CC[P+](c1ccccc1)(c1ccccc1)c1ccccc1 [AP-4-8],IC50,MRC5 fibroblast cells; [3],> 90 µM
OCCCCCC[P+](c1ccccc1)(c1ccccc1)c1ccccc1 [AP-5-531],IC50,MRC5 fibroblast cells; [3],> 90 µM
OCCC[P+](c1ccccc1)(c1ccccc1)c1ccccc1 [AP-7-242],IC50,MRC5 fibroblast cells; [3],> 90 µM
CC(C)(O)C[P+](c1ccccc1)(c1ccccc1)c1ccccc1 [AP-7-253],IC50,MRC5 fibroblast cells; [3],> 90 µM
OCc1ccc([P+](c2ccccc2)(c2ccccc2)c2ccccc2)cc1 [AP-8-98],IC50,MRC5 fibroblast cells; [3],57.6 µM
O=C(O)c1ccc([P+](c2ccccc2)(c2ccccc2)c2ccccc2)cc1 [AP-8-99-1],IC50,MRC5 fibroblast cells; [3],> 90 µM
O=C(OCCOCCO)c1ccc([P+](c2ccccc2)(c2ccccc2)c2ccccc2)cc1 [AP-8-99-2],IC50,MRC5 fibroblast cells; [3],> 90 µM
"O=C(O)c1ccc(C[P+](c2ccccc2)(c2ccccc2)c2ccccc2)cc1 [AP-8-108, (4-Carboxybenzyl)triphenylphosphonium bromide]",cytotoxic effect,[1],no cytotoxic effect
same,cytotoxic effect,[2],no cytotoxic effect
same,IC50,MRC5 fibroblast cells; [3],> 90 µM
same,IC50,MRC5 fibroblast cells; [4],> 90 µM
same,MIC,Escherichia coli; [5],> 32 µg/mL
same,MIC,Escherichia coli; [6],> 32 µg/mL
same,MIC,Escherichia coli; [7],> 32 µg/mL
same,MIC,Escherichia coli; [8],> 32 µg/mL
same,MIC,Escherichia coli; [9],> 32 µg/mL
Oc1ccc(C[P+](c2ccccc2)(c2ccccc2)c2ccccc2)cc1 [AP-8-109],IC50,MRC5 fibroblast cells; [3],60.6 µM
Fc1cc(C[P+](c2ccccc2)(c2ccccc2)c2ccccc2)ccc1Cl [BI-182],IC50,MRC5 fibroblast cells; [3],> 90 µM
C[C@H]1c2cccc(O)c2C(=O)C2=C(O)[C@]3(O)C(=O)C(C(N)=O)=C(O)[C@@H](N(C)C)[C@@H]3[C@@H](O)[C@@H]21 [Doxycycline],MIC,Acinetobacter baumannii; [10],0.5 µg/mL
same,MIC,Acinetobacter baumannii; [11],≤ 0.03 µg/mL
same,MIC,Citrobacter freundii; [12],8 µg/mL
same,MIC,"Citrobacter freundii; isolate B0286, AKH Vienna",2 µg/mL
same,MIC,Enterobacter cloacae; [13],> 32 µg/mL
same,MIC,Enterobacter cloacae; [14],2 µg/mL
same,MIC,Enterococcus faecium,32 µg/mL
same,MIC,Escherichia coli; [5],0.5 µg/mL
same,MIC,Escherichia coli; [6],0.25 µg/mL
same,MIC,Escherichia coli; [7],0.25 µg/mL
same,MIC,Escherichia coli; [8],16 µg/mL
same,MIC,Escherichia coli; [9],2 µg/mL
same,MIC,Haemophilus influenzae; [15],0.12 µg/mL
same,MIC,Haemophilus influenzae; [16],0.12 µg/mL
same,MIC,Klebsiella pneumoniae; [17],0.25 µg/mL
same,MIC,Klebsiella pneumoniae; [18],1 µg/mL
same,MIC,Klebsiella pneumoniae; [19],1 µg/mL
same,MIC,Proteus mirabilis; [20],32 µg/mL
same,MIC,Proteus mirabilis; [21],32 µg/mL
same,MIC,Pseudomonas aeruginosa; [22],16 µg/mL
same,MIC,Pseudomonas aeruginosa; [23],32 µg/mL
same,MIC,Pseudomonas aeruginosa; [24],> 32 µg/mL
same,MIC,Salmonella typhimurium,0.5 µg/mL
same,MIC,Staphylococcus aureus; [25],0.12 µg/mL
same,MIC,Staphylococcus aureus; [26],8 µg/mL
same,MIC,"Staphylococcus aureus; isolate B1325, Clinical isolates",4 µg/mL
same,MIC,Streptococcus agalactiae,0.12 µg/mL
same,MIC,Streptococcus pneumoniae; [27],16 µg/mL
same,MIC,Streptococcus pneumoniae; [28],0.12 µg/mL
same,MIC,Streptococcus pyogenes,16 µg/mL
"CC(C)C[C@H](NC(=O)[C@H](Cc1ccccc1)NC(=O)c1cnccn1)B(O)O [PS-341, bortezomib]",IC50,MRC5 fibroblast cells; [3],0.007 µM
same,IC50,MRC5 fibroblast cells; [4],0.0003 µM
C=C[C@]1(C)C[C@@H](OC(=O)CO)[C@]2(C)[C@H](C)CC[C@]3(CCC(=O)[C@H]32)[C@@H](C)[C@@H]1O [Pleuromutilin],cytotoxicity potency,[1]; E Coli BL21 (DE3),25 µg/mL
same,cytotoxic effect,[1],much less cytotoxic
same,cytotoxic effect,[2],potent cytotoxic agents
same,IC50,MRC5 fibroblast cells; [4],> 90 µM
same,MIC,Acinetobacter baumannii; [10],> 128 µg/mL
same,MIC,Acinetobacter baumannii; [11],> 128 µg/mL
same,MIC,Citrobacter freundii; [12],> 128 µg/mL
same,MIC,"Citrobacter freundii; isolate B0286, AKH Vienna",> 128 µg/mL
same,MIC,Enterobacter cloacae; [13],> 128 µg/mL
same,MIC,Enterobacter cloacae; [14],> 128 µg/mL
same,MIC,Escherichia coli; [5],128 µg/mL
same,MIC,"Escherichia coli; isolate B0158, AcrAB-TolC efflux pump WT, read-out: MIC",> 128 µg/mL
same,MIC,Escherichia coli; [6],0.5 µg/mL
same,MIC,Escherichia coli; [7],32 µg/mL
same,MIC,Escherichia coli; [8],> 128 µg/mL
same,MIC,Escherichia coli; [9],> 128 µg/mL
same,MIC,Haemophilus influenzae; [15],4 µg/mL
same,MIC,Haemophilus influenzae; [16],1 µg/mL
same,MIC,Klebsiella pneumoniae; [17],> 128 µg/mL
same,MIC,Klebsiella pneumoniae; [18],> 128 µg/mL
same,MIC,Klebsiella pneumoniae; [19],> 128 µg/mL
same,MIC,Proteus mirabilis; [20],> 128 µg/mL
same,MIC,Proteus mirabilis; [21],>128 µg/mL
same,MIC,Pseudomonas aeruginosa; [22],> 128 µg/mL
same,MIC,Pseudomonas aeruginosa; [23],> 128 µg/mL
same,MIC,Pseudomonas aeruginosa; [24],> 128 µg/mL
same,MIC,Salmonella typhimurium,128 µg/mL
same,MIC,Staphylococcus aureus; [25],1 µg/mL
same,MIC,Staphylococcus aureus; [26],1 µg/mL
same,MIC,Streptococcus pneumoniae; [27],4 µg/mL
same,MIC,Streptococcus pneumoniae; [28],1 µg/mL
